The values below come from US20240059685A1, “PIEZO1 AGONISTS FOR THE PROMOTION OF BONE FORMATION” (BIOVENTURES, LLC, priority 2019, published 2024).

Assay [1] has as its system femoral cortical bone. Briefly: Ex vivo femoral cortical bone organ culture, qPCR. Format: cell-based. The following applies: cortical bone organ culture from 5-week-old mice, 10 μM, 4 hours, vs DMSO. The procedure: Femoral organ culture. Female mice at 5 weeks of age were euthanized in a CO2 chamber. Femurs were dissected and both ends were removed in a culture hood. Bone marrow was then flushed out using PBS and the periosteal surface was scraped to remove periosteal cells. Femoral shafts were then cultured in a 12-well-plate with 1 ml of α-MEM supplemented with 10% FBS and 1% penicillin/streptomycin/glutamine for 24 hours. We then treated femur shafts with 10 μM Yoda1 (Sigma, St. Louis, MO) or DMSO for 4 hours. Femur shafts were then collected for RNA isolation and qPCR analysis. Ex vivo femoral organ culture was repeated twice with three biological replicates.
Quantitative PCR. Organs and whole bones were harvested from animals, removed of soft tissues, and stored immediately in liquid nitrogen. We prepared osteocyte-enriched bone by removing the ends of femurs and tibias and then flushing the bone marrow with PBS. We then scraped the bone surface with a scalpel and froze them in liquid nitrogen for later RNA isolation, or decalcified them for genomic DNA isolation. We isolated total RNA using TRIzol (Life technologies, NY), according to the manufacturer's instructions and prepared cDNA using High Capacity first strand cDNA synthesis kit (Life Technologies). We performed quantitative RT-PCR using the following Taqman assays from Applied Biosystems: Piezo1 (Mm01241549_m1); Piezo2 (Mm01265861_m1); Ptgs2 (Mm00478374_m1); Cyr61 (Mm00487498_m1); Wnt1 (Mm01300-555_g1); Yap1 (Mm011432-63_m1); Taz (Mm01289583_m1); Tnfsf11 Mm00441906_m1; Tnfrsf11b (Mm00435452_m1); Sost (Mm00470479_m1); and ribosomal protein S2 (Mrps2) (Mm00475529_m1). We calculated relative mRNA amounts using the ΔCt method (Livak and Schmittgen, 2001). We isolated genomic DNA from decalcified cortical bone after digestion with proteinase K and phenol/chloroform extraction. We obtained two custom Taqman assays from Applied Biosystems for quantifying Piezo1 gene deletion efficiency: one specific for sequences between the loxP sites and the other specific for sequences downstream from the 3′ loxP site.
On the technique in general: In qPCR the cycle at which signal appears reflects the starting amount.

Assay [2] relates to C57BL/6J mice. Briefly: Serum osteocalcin and CTX ELISA after 2 weeks of administration. Format: in vivo. The following applies: 4-month-old female C57BL/6J mice, 5 μmol/kg intraperitoneally, 5 days per week for 2 weeks. Here is the method:
To quantify cancellous bone formation, we injected mice with calcein (20 mg/kg body weight) intraperitoneally 7 and 3 days before harvest. To quantify periosteal and endocortical bone formation, we injected mice with calcein (20 mg/kg body weight) and Alizarin Red (20 mg/kg body weight) 10 and 3 days before harvest. For gene expression, we injected Yoda1 into 4-month-old female C57BL/6J mice one time and harvested tibiae 4 hours later for RNA extraction. For bone mass evaluation, we injected Yoda1 into 4-month-old female C57BL/6J mice 5 consecutive days per week for 2 weeks (day 1-5 and day 8-12) and harvested the mice at day 15 for analysis. Yoda1 (Sigma, St. Louis, MO) was dissolved in DMSO at 40 mM as a stock, diluted in 5% ethanol, and injected intraperitoneally at 5 μmol/kg body weight. Mice were rank-ordered by body weight and then assigned to Veh or Yoda1 groups to give identical group means. All investigators involved in data collection were blinded as to the genotype and group of the mice.
Osteocalcin and CTX ELISA. Circulating osteocalcin and CTX in serum was measured using a mouse Osteocalcin enzyme immunoassay kit (Thermo Fisher) and RatLaps™ (CTX-I) EIA kit (Immunodiagnostic Systems, Boldon, UK) respectively according to the manual provided by manufacturers. Blood was collected by retro-orbital bleeding into 1.7 mL microcentrifuge tubes. […]

Turning to `Clc1cccc(Cl)c1CSc1nnc(-c2cnccn2)s1` [Yoda1], in assay [1], the Cyr61 expression result is on record as “promoted expression”, the Ptgs2 expression result is given as “promoted expression”, the Sost expression result was “decreased” and the Tnfrsf11b expression entry was “promoted expression”. In assay [1], the Wnt1 expression entry is reported as “promoted expression”. In assay [2], the “serum levels of CTX, a bone resorption marker” value is on record as “did not observe changes” and the “serum levels of osteocalcin, a bone formation marker” value is listed as “increased”.
